Laboratory results taken from PubChem BioAssay (NCI).
Where “and” joins values, the source holds several entries; their conditions need not be identical. Equal entries are not always repeated.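 Compound exposure: 48 hours, 5 concentrations, 96-well plates. GI50 is the concentration that inhibits growth by half. TGI: total growth inhibition.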

Columns and labels:
Experiment in all cases: NCI anticancer screen, dose series, 48 h
SK-MEL-2 melanoma = tested on: SK-MEL-2 melanoma
OVCAR-8 ovarian = tested on: OVCAR-8 ovarian
NCI-H23 lung = tested on: NCI-H23 lung
HT29 colon = tested on: HT29 colon
OVCAR-4 ovarian = tested on: OVCAR-4 ovarian
786-0 renal = tested on: 786-0 renal
RPMI-8226 leukemia = tested on: RPMI-8226 leukemia
A549 NSCLC = tested on: A549 NSCLC
M14 melanoma = tested on: M14 melanoma
K-562 leukemia = tested on: K-562 leukemia

SMILES | GI50 (SK-MEL-2 melanoma) | TGI (SK-MEL-2 melanoma) | GI50 (OVCAR-8 ovarian) | TGI (OVCAR-8 ovarian) | GI50 (NCI-H23 lung) | TGI (NCI-H23 lung) | GI50 (HT29 colon) | TGI (HT29 colon) | GI50 (OVCAR-4 ovarian) | TGI (OVCAR-4 ovarian) | GI50 (786-0 renal) | TGI (786-0 renal) | GI50 (RPMI-8226 leukemia) | TGI (RPMI-8226 leukemia) | GI50 (A549 NSCLC) | TGI (A549 NSCLC) | GI50 (M14 melanoma) | TGI (M14 melanoma) | GI50 (K-562 leukemia) | TGI (K-562 leukemia)
COc1ccc(CN2c3ccccc3Sc3ccccc32)cc1O | 0.333 µM | 19.9 µM | 0.508 µM | 20.3 µM | 0.364 µM | 13.2 µM | 0.724 µM | 6.4 µM | 0.726 µM | 19.3 µM | 0.838 µM | 21.5 µM | 0.483 µM | 35.5 µM | 0.471 µM | 16.7 µM | 0.383 µM | 18.6 µM | 0.365 µM | 26.6 µM
CN(C)CCN=c1nc2c(c(N)n1-c1ccccc1)c(=S)n(-c1ccccc1)c(=S)n2-c1ccccc1 | 1.73 µM | 3.4 µM | 4.76 µM | 17.6 µM | 13.2 µM | 31.9 µM | 1.48 µM | 3.82 µM | 2.98 µM | 9.01 µM | 1.33 µM | 3.93 µM | 0.587 µM |  | 4.86 µM | 19.8 µM | 1.69 µM | 3.81 µM | 3.6 µM | 
CCS(=O)(=O)c1cccc(-c2cc(C(=O)NC3CCN(C)CC3)c(C)c3[nH]c4ncc(C)cc4c23)c1 | 0.694 µM and 0.673 µM | 3.07 µM and 3.38 µM | 1.58 µM and 0.855 µM | > 10 µM and 11.1 µM | 0.483 µM and 0.322 µM | 5.23 µM and 3.75 µM | 0.372 µM and 0.236 µM | > 8.44 µM and 10.3 µM | 1.04 µM and 0.249 µM | > 7.71 µM and 4.39 µM | 1.68 µM and 1.32 µM | > 8.05 µM and 4.7 µM | 0.736 µM and 0.929 µM | > 7.51 µM and 9.07 µM | 0.49 µM and 0.169 µM | 4.12 µM and 3.79 µM | 1.15 µM and 0.967 µM | > 8.78 µM and 6.73 µM | 0.21 µM and 0.09 µM | > 10 µM and 11 µM
CCOC1=C/C(=N\Nc2ccc([N+](=O)[O-])cc2)CCC1 |  | 58.1 µM |  | > 100 µM |  | 94.1 µM |  | 67.9 µM |  | > 100 µM |  | > 100 µM |  | > 100 µM |  | > 100 µM |  | > 100 µM |  | > 100 µM
CC(C)(C)OC(=O)NCCCCCCCCCCCCn1c2c(c3ccccc3c1=O)C(=O)c1ccccc1-2 | 18.1 µM | 38.2 µM | 49.8 µM | > 100 µM | 36.9 µM | > 100 µM | > 100 µM | > 100 µM | > 100 µM | > 100 µM | 18.3 µM | 50.6 µM | > 100 µM | > 100 µM | > 100 µM | > 100 µM | > 100 µM | > 100 µM | 46.9 µM | > 100 µM
COc1ccc(N=c2nc3sc4cc(Cl)ccc4n3c(N)c2C#N)cc1 | 2.8 µM | 34.7 µM | 5.05 µM | > 100 µM | 2.49 µM | 20.5 µM | 1.31 µM | > 100 µM | 3.51 µM | > 100 µM | 2.43 µM | 5.47 µM | 25 µM | > 72.6 µM | 15.4 µM | > 100 µM | 4.45 µM | > 100 µM | 22.5 µM | > 100 µM
CCCCC[C@H]1C/C=C2/C(=O)C=C[C@@H]2C/C=C\CCCC(=O)O1 | 0.114 µM | 0.296 µM | 0.149 µM | 5.12 µM | 0.16 µM | 0.713 µM | 0.128 µM | 0.278 µM | 0.189 µM | 5.94 µM | 0.164 µM | 0.489 µM | 0.117 µM | 0.366 µM | 0.115 µM | 0.313 µM | 0.163 µM | 5.1 µM | 0.136 µM | 22 µM
CCN(CC)c1ccc(/C=N/N=C(N)N)cc1 | 2.85 µM | 8.33 µM | 5.06 µM | 23.5 µM | 4.59 µM | 50.6 µM | 3.24 µM | 10.8 µM | 5.74 µM | 39.5 µM | 6.2 µM | 20.7 µM | 2.84 µM | 13.3 µM | 4.99 µM | > 100 µM | 4 µM | 17 µM | 3.02 µM | 16.4 µM
COc1ccc(-c2cn3ccnc3c(-c3ccc(Cl)cc3)n2)cc1 | 35.2 µM | > 100 µM | 15 µM | > 100 µM | 4.71 µM | 40.3 µM | 6.66 µM | > 100 µM | 5.61 µM | > 100 µM | 11.7 µM | > 100 µM | 4.58 µM | 91.3 µM | 7.49 µM | 99.3 µM | 5.95 µM | > 100 µM | 4.01 µM | > 100 µM
COc1ccc(C2=NNC(c3sc(Cl)nc3Cl)C2)cc1 (stereo not drawn) | 5.47 µM | 21 µM | 3.6 µM | 21.5 µM | 10.6 µM | 26.7 µM | 5.12 µM | 18.6 µM | 11.5 µM | 25.4 µM | 4.06 µM | > 100 µM | 3.86 µM | 19.2 µM | 29.8 µM | > 100 µM | 3.47 µM | 16.8 µM | 3.63 µM | 36.8 µM
Nc1ccccc1SC(/C=C/NNC1=NC(c2ccccc2)C(c2ccccc2)=NN1)c1ccccc1 (stereo not drawn) |  | 33 µM |  | 49 µM |  | 21.4 µM |  | 34.8 µM |  | 28.7 µM |  | 25 µM |  | 10.1 µM |  | 33.4 µM |  | 25.3 µM |  | 35.7 µM
Cc1cc(C)c(-c2c(O)c(Br)c(-c3c(C)cc(C)c(Br)c3C)c(O)c2Br)c(C)c1Br | 2 µM | 6.2 µM | 3.08 µM | 10.4 µM | 3.21 µM | 11.8 µM | 2.34 µM | 10.2 µM | 2.56 µM | 9.92 µM | 3.74 µM | 14.3 µM | 2.08 µM | 11.9 µM | 2.73 µM | 11.7 µM | 1.97 µM | 4.71 µM | 2.65 µM | 13.9 µM
O=C(OCC1=CC(=O)c2ccccc2C1=O)c1ccccc1 | 12.3 µM | 35.9 µM | 14.4 µM | 29.1 µM | 6.28 µM | 24.8 µM | 8.13 µM | 37.7 µM | 13.2 µM | 28.4 µM | 18.9 µM | 33.8 µM | 21.3 µM | > 100 µM | 2.41 µM | 6.24 µM | 1.72 µM | 3.59 µM | 9.47 µM | 34.5 µM
